The text below walks through data of patent US10787483B2, “Antimicrobial peptidomimetics” (Agency for Science, Technology and Research, priority 2014, dated 2020).

Each structure is given as a SMILES string. Values after ≈ are worked out from the molar mass of the structure shown. Where two headings read alike, the source gives them in different places.

In assay [1] the test system is MRSA ATCC-700699. Description: MIC, panel of MRSA strains: ATCC-700699. Type of assay: cell-based. The settings on record: Staphylococcus aureus; MRSA strain ATCC-700699. How it is done:
(§1) Using a sterile loop, 3 to 5 isolated colonies of bacteria of the same morphological appearance are selected from the overnight agar plate. The colonies are transferred into a conical flask containing 5 mL of liquid medium (i.e. Mueller-Hinton broth). The broth is incubated at 37° C. in a shaker at 220 rpm until it reaches a turbidity that is equal to the turbidity of a McFarland Standard 0.5 (correspond to 1×10^8 cfu/mL). This culture growth step will require 1-2 hours depending on the bacteria tested.
(§2) During this pause period, an antibacterial dilution is prepared. Therefore an antibacterial stock solution is diluted in Mueller-Hinton broth. The concentration of DMSO is kept at 5%. 100 μL of the antibacterial solution are dispensed into the first well of a row. 50 μL of medium containing 0.5% of DMSO are dispensed to the rest of the wells. […]
(§3) The bacterial suspension prepared above is mixed thoroughly, and diluted by a factor of 1:100 in the sterile medium. […] The colonies on the agar plate are counted the next day to verify that the right number of cfu was inoculated. The plate is agitated in the SpectraMax spectrophotometer for 90 s and the OD600 for all the wells in the plate is recorded. […]

Assay [2] relates to MRSA ATCC-1720. Description: MIC, panel of MRSA strains: ATCC-1720. The settings on record: Staphylococcus aureus; MRSA strain ATCC-1720. It is filed as cell-based. As to the method:
as §1, §2, §3

The subject of assay [3] is MRSA (ATCC 33591). Description: MIC determination by broth microdilution vs. MRSA (ATCC 33591). It is filed as cell-based, Staphylococcus aureus. The note with it: Staphylococcus aureus. How it is done: as §1
During this pause period, an antibacterial dilution is prepared. Therefore an antibacterial stock solution is diluted in Mueller-Hinton broth. The concentration of DMSO is kept at 5%. 100 μL of the antibacterial solution are dispensed into the first well of a row. 50 μL of medium containing 0.5% of DMSO are dispensed to the rest of the wells. A 2-fold serial dilution is achieved by transferring 50 μL from the first well (containing the highest concentration of antibacterial) into the second well, and continuing like this until the 10th well in the row. The final 50 μL are discarded so that every well has 50 μL of each antibacterial dilution.
The 11th well was used as the growth control well (medium with bacterial inoculums, no antibacterial) while the 12th well was the sterility control well (medium only).
The bacterial suspension prepared above is mixed thoroughly, and diluted by a factor of 1:100 in the sterile medium. Each well and the growth control well is inoculated with 50 μL of the bacterial suspension. […] To the sterility control well 50 μL of sterile medium are added in place of the bacterial suspension. 10 μL aliquot from the growth control well is removed immediately after inoculating the plate and pipetted it into a sterile Eppendorf tube holding 990 μL of sterile broth. It is mixed well by vortexing. This suspension is further diluted (1:10) by pipetting 100 μL into 900 μL of sterile broth and mixing it well. 100 μL of each of the two dilutions are plated onto two different antibacterial-free agar plates. A sterile cell spreader is used to spread the liquid. Then the plate is sealed with a transparent adhesive film. The microtiter plate and agar plates are incubated at 37° C. for 16-20 hours or until satisfactory growth is obtained. The colonies on the agar plate are counted the next day to verify that the right number of cfu was inoculated. The plate is agitated in the SpectraMax spectrophotometer for 90 s and the OD600 for all the wells in the plate is recorded.
(Dilution methods test growth across graded concentrations, often in twofold steps.)

In assay [4] the test system is MRSA ATCC-2094. Description: MIC, panel of MRSA strains: ATCC-2094. Type of assay: cell-based. The settings on record: Staphylococcus aureus; MRSA strain ATCC-2094. As to the method: as §1, §2, §3
The test system of assay [5] is MRSA ATCC-BAA-1681. Description: MIC, panel of MRSA strains: ATCC-BAA-1681. The note with it: Staphylococcus aureus; MRSA strain ATCC-BAA-1681. It is filed as cell-based. As to the method: as §1, §2, §3
The test system of assay [6] is MRSA ATCC-BAA-1680. Description: MIC, panel of MRSA strains: ATCC-BAA-1680. It is filed as cell-based. The settings on record: Staphylococcus aureus; MRSA strain ATCC-BAA-1680. How it is done:
as §1, §2, §3

Assay [7] concerns MRSA ATCC-BAA-44. Description: MIC, panel of MRSA strains: ATCC-BAA-44. Type of assay: cell-based. The note with it: Staphylococcus aureus; MRSA strain ATCC-BAA-44. How it is done: as §1, §2, §3

Turning to `N=C(N)NCCCCNC(=O)[C@@H](Cc1ccc(-c2ccccc2)cc1)NC(=O)[C@@H](CCCNC(=N)N)NC(=O)[C@H](N)Cc1ccc(-c2ccccc2)cc1` [Compound (A)], the minimum inhibitory concentration (MIC) (commonly the lowest concentration found to suppress growth) in assay [1] came to 3.12 µM (≈ 2.29 µg/mL); in assay [2], 3.12 µM (≈ 2.29 µg/mL); in assay [3] (MRSA (ATCC 33591), read-out: MIC), 1.56 µM (≈ 1.14 µg/mL); in assay [3] (MRSA strain ATCC-33591, read-out: MIC values), 1.56 µM (≈ 1.15 µg/mL); in assay [4], 3.12 µM (≈ 2.29 µg/mL); in assay [5] it was 3.12 µM (≈ 2.29 µg/mL). Moreover, the results for the MIC in assay [6] and in assay [7] were 1.56 µM (≈ 1.15 µg/mL) and 3.12 µM (≈ 2.29 µg/mL), respectively.
